{"source": "ChEMBL document CHEMBL1153295", "about": "“Stereoselective synthesis of 15- and 16-substituted isosteviol derivatives and their cytotoxic activities” (Bioorg Med Chem Lett, 2009)", "note": "pIC50: −log10 of the molar value. Calls of active or inactive are those of the source. The rule behind the calls is not given here.", "data": [{"test_system": "B16-F10", "assay": "Cytotoxicity against mouse B16F10 cells after 48 hrs by MTT assay", "type": "functional, cell-based", "details": "B16-F10, 48 h", "values": [{"smiles": "C=C[C@]12CC[C@H]3[C@@](C)(CCC[C@@]3(C)C(=O)OCC)[C@@H]1CC[C@](C)(C=N)C2", "pIC50": 4.56}, {"smiles": "C=C[C@]12CC[C@H]3[C@@](C)(CCC[C@@]3(C)C(=O)OCC)[C@@H]1CC[C@](C)(CO)C2", "pIC50": 4.62}, {"smiles": "CCOC(=O)[C@]1(C)CCC[C@@]2(C)[C@@H]3CC[C@@]4(C)C[C@]3(CC[C@@H]21)[C@H](COC(=O)c1cccnc1)[C@H]4O", "pIC50": 4.60}, {"smiles": "CCOC(=O)[C@]1(C)CCC[C@@]2(C)[C@@H]3CC[C@@]4(C)C[C@]3(CC[C@@H]21)[C@H](CO)[C@H]4O", "pIC50": 4.17}, {"smiles": "CCOC(=O)[C@]1(C)CCC[C@@]2(C)[C@@H]3CC[C@@]4(C)C[C@]3(CC[C@@H]21)c1cn(-c2ccccc2)nc14", "pIC50": 4.72}, {"smiles": "CCOC(=O)[C@]1(C)CCC[C@@]2(C)[C@@H]3CC[C@@]4(C)C[C@]3(CC[C@@H]21)C[C@H]4O", "pIC50": 4.24}, {"smiles": "CCOC(=O)[C@]1(C)CCC[C@@]2(C)[C@@H]3CC[C@@]4(C)C[C@]3(CC[C@@H]21)[C@@H]1CON[C@@H]14", "pIC50": 4.82}, {"smiles": "CCOC(=O)[C@]1(C)CCC[C@@]2(C)[C@@H]3CC[C@@]4(C)C[C@]3(CC[C@@H]21)[C@H](COC(=O)c1cccnc1)[C@H]4OC(=O)c1cccnc1", "pIC50": 4.66}, {"smiles": "CCOC(=O)[C@]1(C)CCC[C@@]2(C)[C@@H]3CC[C@@]4(C)C[C@]3(CC[C@@H]21)[C@@H]1CN(c2ccc([N+](=O)[O-])cc2)N=C14", "pIC50": 4.68}, {"smiles": "C=C[C@]12CC[C@H]3[C@@](C)(CCC[C@@]3(C)C(=O)OCC)[C@@H]1CC[C@](C)(O)C2", "pIC50": 4.59}]}, {"test_system": "B16-F10", "assay": "(§1) Cytotoxicity against mouse B16F10 cells at 100 uM after 48 hrs by MTT assay", "type": "functional", "details": "not given", "values": [{"smiles": "C=C[C@]12CC[C@H]3[C@@](C)(CCC[C@@]3(C)C(=O)OCC)[C@@H]1CC[C@](C)(C=O)C2", "inhibition": "inactive"}, {"smiles": "CCOC(=O)[C@]1(C)CCC[C@@]2(C)[C@@H]3CC[C@@]4(C)C[C@]3(CC[C@@H]21)[C@@H]1CON(C)[C@@H]14", "inhibition": "inactive"}, {"smiles": "C=C[C@]12CC[C@H]3[C@@](C)(CCC[C@@]3(C)C(=O)OCC)[C@@H]1CC[C@](C)(C(=O)O)C2", "inhibition": "inactive"}, {"smiles": "CCOC(=O)[C@]1(C)CCC[C@@]2(C)[C@@H]3CC[C@@]4(C)C[C@]3(CC[C@@H]21)CC4=O", "inhibition": "inactive"}, {"smiles": "CCOC(=O)[C@]1(C)CCC[C@@]2(C)[C@@H]3CC[C@@]4(C)C[C@]3(CC[C@@H]21)[C@@H]1CO[C@H]4O1", "inhibition": "inactive"}, {"smiles": "C[C@@]12CC[C@@H]3[C@@](CC[C@H]4[C@@]3(C)CCC[C@@]4(C)C(=O)O)(CC1=O)C2", "inhibition": "inactive"}, {"smiles": "C=CC(=O)O[C@@H]1C[C@]23CC[C@H]4[C@@](C)(CCC[C@@]4(C)C(=O)OCC)[C@@H]2CC[C@@]1(C)C3", "inhibition": "inactive"}, {"smiles": "CCOC(=O)[C@]1(C)CCC[C@@]2(C)[C@@H]3CC[C@@]4(C)C[C@]3(CC[C@@H]21)[C@H](CO[N+](=O)[O-])[C@H]4O[N+](=O)[O-]", "inhibition": "inactive"}, {"smiles": "C[C@@]12CC[C@@H]3[C@@](CC[C@H]4[C@@]3(C)CCC[C@@]4(C)C(=O)O)(C[C@H]1O)C2", "inhibition": "inactive"}, {"smiles": "C[C@]12CC[C@H]3[C@]4(C)CCC[C@@](C)(C(=O)O)[C@H]4CC[C@@]3(C1)[C@H](CO)[C@H]2O", "inhibition": "inactive"}]}, {"test_system": "B16-F10", "assay": "as §1", "type": "functional", "details": "B16-F10, 48 h", "units": {"inhibition at 100 µM": "%"}, "values": [{"smiles": "C=C[C@]12CC[C@H]3[C@@](C)(CCC[C@@]3(C)C(=O)OCC)[C@@H]1CC[C@](C)(CN)C2", "inhibition at 100 µM": 34.3}]}]}
